The text below walks through data of PubChem BioAssay (NCI).

Among the test systems are HOP-92 NSCLC; COLO 205 colon; M14 melanoma; HCT-116 colon; IGROV1 ovarian; EKVX NSCLC; A498 renal; A549 NSCLC; TK-10 renal; MALME-3M melanoma.
What all share (test): NCI-60 cell line screen, 48 h

Molecules are shown by their SMILES.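 Each compound was tested at five concentrations against cells in 96-well plates for 48 hours. GI50 = concentration required for 50% inhibition of growth. At the TGI there is no net growth.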 Some results are limits rather than exact numbers.

In the case of `CC1=CCC[C@H]2[C@](C)(CC3=CC(=O)C4SCCSC4C3=O)[C@@H](C)CC[C@]12C` (some centres undefined), the TGI in the assay with HOP-92 NSCLC came to 70.4 µM; with COLO 205 colon, 35.9 µM; in the assay on M14 melanoma, 29.8 µM; in the assay with HCT-116 colon it was 31 µM; in the assay with IGROV1 ovarian, 84.6 µM; in the assay with EKVX NSCLC, 54.4 µM. Also, the figures for the TGI in the assay on A498 renal and in the assay on A549 NSCLC were 31.2 µM and 38.3 µM, respectively.
`NC(=S)N=Nc1c(O)cc(Nc2ccc(Cl)cc2Cl)c2ccccc12`: the TGI was 52.4 µM with HOP-92 NSCLC; > 100 µM with COLO 205 colon; > 100 µM in the assay with TK-10 renal; > 100 µM in the assay with M14 melanoma; > 100 µM in the assay with HCT-116 colon; 88 µM with IGROV1 ovarian. Moreover, the results for the TGI in the assay on EKVX NSCLC, in the assay with A498 renal and in the assay on A549 NSCLC were 94.4 µM, > 100 µM and > 100 µM, respectively.
As to `C[C@@H]1C(=O)CC2(O)[C@@]13C[C@@H](OC(=O)[C@@H]3O)[C@@H](C)[C@@]21COC1=O` (some centres undefined), the TGI with COLO 205 colon, with TK-10 renal, with M14 melanoma, in the assay on HCT-116 colon, in the assay with IGROV1 ovarian and with EKVX NSCLC was > 100 µM each time. For the same molecule, the TGI with MALME-3M melanoma and in the assay on A549 NSCLC was > 100 µM each time.
Turning to `CCOC(=O)Cc1nn2c(=O)cc(C)nc2s1`, the TGI in the assay on HOP-92 NSCLC, in the assay with COLO 205 colon, in the assay on TK-10 renal, in the assay on M14 melanoma, with HCT-116 colon and in the assay with IGROV1 ovarian was > 100 µM in each case. Moreover, the TGI in the assay with EKVX NSCLC, in the assay with MALME-3M melanoma and in the assay with A549 NSCLC was > 100 µM throughout.
With `C=C1CC=CC(C)(C)C1C/C=C(\C)C(O)CBr` (centres undefined), the TGI in the assay on HOP-92 NSCLC, in the assay on COLO 205 colon, with TK-10 renal, in the assay with M14 melanoma, in the assay on HCT-116 colon and with IGROV1 ovarian was > 100 µM each time. For the same molecule, the TGI with EKVX NSCLC, in the assay on A498 renal and in the assay with A549 NSCLC was > 100 µM in each case.
With `O=C(CN=C(CN(c1ccccc1)c1ccccc1)Oc1c(Cl)cc(Cl)cc1Cl)n1cnc2ccccc21`, the TGI with HOP-92 NSCLC, in the assay with COLO 205 colon, in the assay on TK-10 renal, in the assay with M14 melanoma, in the assay on HCT-116 colon and in the assay with IGROV1 ovarian was > 100 µM throughout. In addition, the TGI with EKVX NSCLC, with MALME-3M melanoma and in the assay with A549 NSCLC was > 100 µM in each case.
In the case of `OC(c1ccco1)C(F)(F)c1nc2ccccc2o1` (centres undefined), the TGI in the assay with HOP-92 NSCLC, in the assay on COLO 205 colon, in the assay with TK-10 renal, with M14 melanoma, with HCT-116 colon and with IGROV1 ovarian was > 100 µM in each case. Further, the TGI in the assay on EKVX NSCLC and in the assay with A498 renal was > 100 µM throughout.
For the molecule `C/C(=N\Nc1nc2ccccc2s1)c1cccnn1`, the TGI was 14.3 µM with HOP-92 NSCLC; > 100 µM in the assay on COLO 205 colon; 88.7 µM in the assay with M14 melanoma; 25.5 µM in the assay with HCT-116 colon; 15.5 µM in the assay with IGROV1 ovarian; 33.5 µM in the assay on EKVX NSCLC. Besides, the TGI in the assay with A549 NSCLC was > 100 µM.
With `CC/C=C\C/C=C\C/C=C\CCCCCCCC(=O)OC(COC(=O)CCCCCCCCCCCCCCCCC)COC1OC(CO)C(O)C(O)C1O` (centres undefined), the TGI in the assay with HOP-92 NSCLC, with COLO 205 colon, with TK-10 renal, in the assay on M14 melanoma, in the assay on HCT-116 colon and in the assay on IGROV1 ovarian was > 25 µM each time. In addition, the TGI with EKVX NSCLC, with A498 renal and in the assay with A549 NSCLC was > 25 µM throughout.
On to `COc1ccc(CCCCl)c(C2=NCCc3ccccc32)c1`, for which the TGI with HOP-92 NSCLC was > 100 µM; in the assay with COLO 205 colon it was 82.8 µM; in the assay on TK-10 renal, > 100 µM; with M14 melanoma it was > 100 µM; in the assay on HCT-116 colon, > 100 µM; with IGROV1 ovarian, > 100 µM. The TGI in the assay with EKVX NSCLC, in the assay on A498 renal and in the assay on A549 NSCLC was > 100 µM each time.
Consider `COc1cc(OC)c(C2c3cc4c(cc3OC(N3CCOCC3)C2C)OCO4)c(OC)c1` (centres undefined), for which the TGI with COLO 205 colon, in the assay on TK-10 renal, with M14 melanoma, with HCT-116 colon, with IGROV1 ovarian and in the assay on EKVX NSCLC was > 100 µM throughout. The TGI in the assay on A549 NSCLC was > 100 µM.
Take `O=C1c2c(c3c4ccc(Br)cc4oc3c3[nH]c4ccccc4c23)C(=O)N1O`: the GI50 in the assay on HOP-92 NSCLC was 1.74 µM; in the assay on TK-10 renal, 4.67 µM; with A498 renal, 0.585 µM. The figures for the TGI in the assay on HOP-92 NSCLC, in the assay on TK-10 renal and in the assay on A498 renal were 4.45 µM, > 100 µM and 4.41 µM, respectively.
In the case of `CC1OC(n2cc(F)c(=O)[nH]c2=O)C(O[Si](C)(C)C(C)(C)C)C1O[Si](C)(C)C(C)(C)C` (centres undefined), the TGI in the assay on COLO 205 colon amounted to 27.4 µM; with TK-10 renal, 22.9 µM; with M14 melanoma, 45 µM; with HCT-116 colon, 26.8 µM; with IGROV1 ovarian, 27.3 µM; in the assay with EKVX NSCLC, 31.6 µM. The TGI with A498 renal was 27.3 µM; in the assay on MALME-3M melanoma it was 28.5 µM; with A549 NSCLC it was 54.2 µM.
With `CCOC(=O)c1c(NC(=S)Nc2ccc(C)cc2)sc2c1CCN(C)C2`, the TGI in the assay on COLO 205 colon, in the assay with TK-10 renal, in the assay with M14 melanoma, in the assay on HCT-116 colon, in the assay with IGROV1 ovarian and in the assay on EKVX NSCLC was > 100 µM in each case. Further, the TGI in the assay with A498 renal and in the assay with A549 NSCLC was > 100 µM each time.
As to `N#CC(C#N)=Cc1cccc(Oc2ccccc2)c1`, the TGI in the assay with COLO 205 colon was 73.9 µM; in the assay with TK-10 renal, > 70.6 µM; in the assay on M14 melanoma it was 40.4 µM; with HCT-116 colon, 32.9 µM; with IGROV1 ovarian it was 67 µM; in the assay with EKVX NSCLC, > 100 µM. The TGI in the assay with A498 renal was > 100 µM; with MALME-3M melanoma, 43.4 µM; with A549 NSCLC, > 100 µM.
